By Ki is commonly meant the dissociation constant of the complex between target and ligand, obtained from inhibition or displacement. As a reminder, the IC50 is the concentration needed to halve the response being measured. In general, Kd refers to the constant that tells how readily two partners part at equilibrium. Read a high Kd as weaker binding.

Assay [1] addresses T1, PHD2_181-402 (Homo sapiens, UniProt Q9GZT9). Description: PHD2_181-402 inhibition assay (bioluminescent succinate detection, Succinate-Glo). The format is biochemical. On the procedure: PHD2_181-402 activity and inhibition assays were performed with the Succinate-Glo JmjC Demethylase/Hydroxylase Assay Kit (Promega) according to manufacturer protocol and as detailed in Alves et al. […] The enzymatic reaction was incubated at room temperature for 10 minutes, after which succinate formation was detected according to manufacturer protocol. […] Then, 20 µL of Succinate Detection Reagent II was added to the reactions and incubated for 10 min at room temperature before the luciferase-generated luminescence was recorded on a plate-reading luminometer. Succinate standard curves were used to determine the sensitivity and linear range of the bioluminescent succinate detection. […] Succinate standards were serially diluted two-fold from 15 µM to 58.6 nM and a 0 succinate blank. 10 µL of succinate standards were used for detection as described above. […] Reactions were incubated at room temperature for 10 minutes and succinate detected. […] Measured IC50s were calculated from fitting the percentage activity data to the [Inhibitor] vs. normalized response – variable slope least squares nonlinear regression in GraphPad Prism 9. True IC50s were calculated from measured IC50s with the equation derived by Wu et al.[26] describing the relationship between the measured IC50 of an inhibitor and the percentage of substrate conversion.

For assay [2], the system named is murine colon tissue. As to the kind of experiment: Rectal gavage in antibiotic-treated SCFA-depleted mice. The following applies: after antibiotics. The format is in vivo. How it is done:
C57BL/6 mice were purchased from Jackson Laboratories. Animals were maintained and bred in standard housing conditions under 24 h/day, 7 days/week veterinary care available at the University of Colorado Anschutz Medical Campus (AMC) animal facility. All animal procedures were reviewed and approved by the Institutional Animal Care and Use Committee at AMC. 8 to 10-week-old male and female mice were pre-administered an antibiotic cocktail consisting of 1 mg/mL ampicillin, gentamicin, and neomycin, 0.5 mg/mL vancomycin, and 0.25 mg/mL metronidazole for 5 d ad libitum in addition to water control mice. Mice were then given 200 µL of tributyrin daily for three days using reusable feeding needles (18060–20, Fine Science Tools). On the third day, 4 h prior to sacrifice, select mice given tributyrin were rectally given 100 μL of 60 mM MCPA with plastic gavage tubes (FTP-20-38-50, Instech) inserted 1 cm into the rectum without surgical lubricant. Whole colon tissue at the site of the rectal gavage was collected for metabolite analysis, while colon whole tissue and epithelial scrapings upstream from the gavage site was collected for RNA and protein analysis. In the second butyrate reconstitution experiment, mice were rectally given 100 μL of 100 mM butyrate, 100 mM butyrate with 10 mM MCPA, 1.5 mM IOX2, or PBS control under anesthesia. Mice were then sacrificed 1 h after rectal supplementation and colon tissues collected for metabolite, mRNA, and protein analysis from the site of the rectal gavage.
TRIzol® reagent (ThermoFisher Scientific) was used to isolate total RNA from T84 cells. Mouse colon tissue samples were harvested into RNAlater™ (Invitrogen) and stored at 4°C for 48 h. Total RNA was isolated from the tissues using RNeasy Plus Mini Kit (Qiagen). cDNA was prepared using the iScript cDNA Synthesis Kit (Bio-Rad). Quantitative PCR analysis was performed using the Power SYBR™ Green master mix (Applied Biosystems) in a thermocycler. Fold change in expression of target mRNA relative to β-actin (ACTB) mRNA was calculated using the delta-delta Ct method. Primer sequences used are as follows: hBNIP3 – forward, 5′- […] −3′, reverse, 5′- […] −3′; hBNIP3L – forward, 5′- […] −3′, reverse, 5′- […] −3′; hGLUT1 – forward, 5′- […] −3′, reverse, 5′- […] −3′; hACTB – forward, 5′- […]-3′, reverse, 5′- […]-3′; mBnip3 – forward, 5′- […] −3′, reverse, 5′- […] −3′; mBnip3l – forward, 5′- […] −3′, reverse, 5′- […] −3′; mGlut1 – forward, 5′- […] −3′, reverse, 5′- […] −3′; and mActb – forward, 5′- […] −3′, reverse, 5′- […] −3′.
T84 cells were rinsed with PBS and collected and lysed in 200 µL of radioimmunoprecipitation assay (RIPA, 50 mM Tris-HCl pH 8.0, 1 mM EDTA, 1% Triton X-100, […], 0.5% sodium deoxycholate, 150 mM NaCl) buffer with protease inhibitors on ice. Mouse colon samples were harvested into 350 µL of RIPA buffer and flash frozen in liquid nitrogen. Samples were homogenized by sonication, and insoluble materials removed by centrifugation at 10,000 g for 5 min at 4°C. Protein quantity of the supernatant was determined using the Bradford reagent. Laemmli sample buffer was added to each sample. Samples (20 µg) were run and separated on 8% SDS-PAGE gels and transferred to polyvinylidene fluoride (PVDF) membranes. Membranes were blocked overnight at 4°C in Tris-buffered saline with 1% Tween-20 (TBS-T) and 5% milk. […]

For assay [3], the system named is HDACs. Further details: method as in PMID 18061431, PMID 30052654. The following applies: cited from earlier work.
For assay [4], the target named is T1, PHD2_181-402. Description: Microscale thermophoresis (MST) binding. For orientation: In MST a laser heats a spot of the sample, and binding alters the fluorescence response.

T1 sequence (Q9GZT9 181-402): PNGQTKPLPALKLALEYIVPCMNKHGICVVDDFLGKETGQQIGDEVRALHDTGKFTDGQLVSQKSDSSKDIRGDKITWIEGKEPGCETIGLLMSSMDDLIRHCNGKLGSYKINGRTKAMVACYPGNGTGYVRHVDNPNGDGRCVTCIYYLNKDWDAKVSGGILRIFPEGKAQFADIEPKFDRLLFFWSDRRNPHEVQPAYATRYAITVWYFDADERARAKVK

For the compound `CCCC(=O)O` [Butyrate], in assay [1] (2-OG at 1, 5, 10, 40 or 100 µM), the “change of IC50 with increasing 2-OG” value is given as “did not change”. Also, in assay [1] (calculated from true IC50 with the IC50 to Ki conversion equation of Cer et al., read-out: noncompetitive Ki), the inhibitory constant (Ki) is 5.3 ± 0.5 mM. In addition, the mode of inhibition entry in assay [1] (from 2-OG titration, WaterLOGSY and MST) is “noncompetitive”. Moreover, in assay [1] (read-out: True IC50), the IC50 came to 5.3 ± 0.5 mM. The “mRNA expression of HIF-1α targets Bnip3, Bnip3l, Glut1” value in assay [2] (colon tissue, rectal 100 mM butyrate or 1.5 mM IOX2, 1 h) is “rescued”. The “mRNA expression of HIF-1α targets Bnip3, Bnip3l, Glut1, butyrate with MCPA” value in assay [2] (colon tissue, rectal 100 mM butyrate with 10 mM MCPA, 1 h) is “rescued”. Also, in assay [2] (rectal 100 mM butyrate or 1.5 mM IOX2, 1 h), the “colon tissue 2-OG levels” value is reported as “rescued”. For the same compound, the HDAC inhibition result in assay [3] is on record as “most potently inhibits HDACs”. Moreover, the Kd in assay [4] turned out to be 2 ± 3 mM. Further, in assay [4] (25 nM PHD2_181-402, with 500 nM 2-OG), the “binding to PHD2_181-402 in the presence of 2-OG (MST)” value was “no butyrate binding”.
